Measured values reported in the NIST ThermoML archive (doi:10.1021/je800122x).
Numbers after ± are expanded uncertainties.

Key:
[1] = refractive index (Na D-line) (dimensionless); conditions: 293.1 K; 101.33 kPa; Liquid; Standard Abbe refractometry
[2] = Liquid

Row | SMILES | refractive index [1] | vapor or sublimation pressure ([2]; 293.15 K) | vapor or sublimation pressure ([2]; 303.15 K) | vapor or sublimation pressure ([2]; 313.15 K) | vapor or sublimation pressure ([2]; 323.15 K) | vapor or sublimation pressure ([2]; 333.15 K) | vapor or sublimation pressure ([2]; 343.15 K) | vapor or sublimation pressure ([2]; 353.15 K) | vapor or sublimation pressure ([2]; 363.15 K) | vapor or sublimation pressure ([2]; 369.15 K) | vapor or sublimation pressure ([2]; 323.1 K) | vapor or sublimation pressure ([2]; 333.05 K) | vapor or sublimation pressure ([2]; 343 K) | vapor or sublimation pressure ([2]; 352.9 K) | vapor or sublimation pressure ([2]; 358.15 K) | vapor or sublimation pressure ([2]; 358.45 K) | vapor or sublimation pressure ([2]; 361.15 K) | vapor or sublimation pressure ([2]; 364.15 K) | vapor or sublimation pressure ([2]; 367.15 K)
1 | CC(Cl)CCl (stereo not drawn) [1,2-dichloropropane] | 1.4383 ± 0.0007 |  |  |  |  |  |  |  |  |  |  |  |  |  |  |  |  |  | 
2 | CC(O)CCl (stereo not drawn) [1-chloro-2-propanol] | 1.4377 ± 0.0007 | 1.199 ± 0.99 kPa | 2.225 ± 1.1 kPa | 3.981 ± 1.3 kPa | 6.662 ± 1.7 kPa | 10.88 ± 2.4 kPa | 17.2 ± 3.3 kPa | 26.48 ± 4.7 kPa | 39.8 ± 6.7 kPa | 50.1 ± 8.2 kPa |  |  |  |  |  |  |  |  | 
3 | CC(C)(Cl)OC(C)(C)Cl [propane, 2,2'-oxybis[2-chloro-] | 1.4473 ± 0.0007 |  | 0.24 ± 0.18 kPa | 0.564 ± 0.34 kPa |  |  |  |  |  |  | 0.867 ± 0.49 kPa | 1.28 ± 0.7 kPa | 1.919 ± 0.69 kPa | 2.822 ± 0.78 kPa | 3.673 ± 0.87 kPa | 3.348 ± 0.83 kPa | 4.237 ± 0.92 kPa | 4.806 ± 0.97 kPa | 5.477 ± 1 kPa
